The subject of this test is epithelial cells. Type of test: cell-based, human.

`OC[C@H]1O[C@@](CO)(O[C@H]2O[C@H](CO)[C@@H](O)[C@H](O)[C@H]2O)[C@@H](O)[C@@H]1O` [5% Sucrose, sucrose]: the “time after which sticky clumps were invaded by fungi and bacteria” value (0.5% solution) stood at 48 h. The “cell replication / tissue formation observed” value (0.5% solution, isolated epithelial cells, ambient temperature) was “Rapid cell replication was observed in form of sticky clumps with no distinct differentiation into tissue formation”. In addition, under “ambient temperature (24° C.)”, the “Potential for Tissue Growth” value is recorded as “sticky lump”.

Source of the values: patent US20030096015A1, “Cytogenic/nucleogenic healing” (priority 1997, published 2003).
